Test results: publication PMC12650729 (Biology, 2025)
Where two headings read alike, the source gives them in different places.

What was measured:
[1] = test system: CV-B3; experiment: EC50 evaluation against CV-B3 in Vero E6 cells (viral nucleic acid load); format: cell-based
[2] = test system: Echo-11; experiment: EC50 evaluation against Echo-11 in RD cells; format: cell-based
[3] = in vitro; conditions: human
[4] = test system: PV1; experiment: microbe, parasite or virus in culture; format: cell-based, poliovirus 1; conditions: Enterovirus C, RD, read-out: EC50 against PV1
[5] = test system: EV-A71; experiment: microbe, parasite or virus in culture; format: cell-based; conditions: Enterovirus A, EVA71, RD, read-out: EC50 against EV-A71
[6] = in vitro; conditions: African green monkey
[7] = test system: CV-A9; experiment: Drug combination, Zero Interaction Potency (ZIP) model, SynergyFinder, CV-A9-infected RD cells; conditions: CV-A9 MOI 0.001, RD cells; -10 to 10 additive
[8] = test system: CV-A9; experiment: EC50 evaluation against CV-A9 in RD cells (viral nucleic acid load); format: cell-based; conditions: read-out: EC50 against CV-A9
[9] = test system: CV-A9; experiment: Time-of-addition assay, CV-A9; format: cell-based; conditions: 25 μM, RD cells, MOI 0.001
[10] = CC50 evaluation, CellTiter-Blue cell viability assay, RD cells; format: cell-based; conditions: human, RD cells (human rhabdomyosarcoma), parallel to CV-A9 assay
[11] = test system: CV-A9; experiment: Primary screening for antiviral compounds by cytopathic effects (CPEs); conditions: 10 μM, RD cells, 36 h.p.i.
[12] = test system: CV-A9; experiment: EC50 evaluation against CV-A9 in Huh-7 cells; format: cell-based
[13] = test system: CV-A9; experiment: organism not typed; format: cell-based; conditions: for inhibition at 25 µM: RD
[14] = test system: CV-A9; experiment: Post-entry inhibitory effect (viral RNA kinetics), CV-A9 in RD cells; format: cell-based; conditions: 25 μM added at 2 h post-infection, cells and supernatants
[15] = biological target: CV-A9 3D^pol (Coxsackievirus A9, UniProt P21404); experiment: In vitro RNA primer extension assay using 3D^pol
[16] = test system: MCP-1; experiment: Cytokine expression analysis, MCP-1 mRNA in CV-A9-infected RD cells; format: cell-based, Human; conditions: MOI 0.001, 24 h
Method: (§1) Figure S13. Effect of bioactive compounds on the expression of MCP-1 and COX-
(§2) 2 induced by CV-A9 infection.
(§3) MCP-1 (a) and COX-2 (b) mRNA levels in RD cells were quantified by RT-qPCR at
(§4) 24 h.p.i following CV-A9 infection (MOI=0.001) and treatment with 50 μM velutin,
(§5) isorhamnetin, or (−)-epicatechin gallate. Representative curves of at least two

[17] = test system: IRES; conditions: 293T cells, Fluc/Rluc
[18] = test system: EV-A71; experiment: Antiviral evaluation in vivo, EV-A71-infected BALB/c young mice (tissue viral load, H&E); conditions: same dosing
[19] = test system: CV-A9 2A^pro; experiment: FRET-based protease assay, CV-A9 2A protease; format: biochemical; conditions: pre-incubated 30 min
[20] = test system: COX-2; experiment: Cytokine expression analysis, COX-2 mRNA in CV-A9-infected RD cells; format: cell-based, Human; conditions: MOI 0.001, 24 h
Method: as §1, §2, §3, §4, §5

[21] = test system: TNF-α; experiment: Cytokine expression analysis, TNF-α mRNA in CV-A9-infected RD cells
[22] = test system: IL-6; experiment: Cytokine expression analysis, IL-6 mRNA in CV-A9-infected RD cells; conditions: Homo sapiens, 24 h, read-out: inhibition of CV-A9-induced IL-6 upregulation
[23] = biological target: CV-B3 3C^pro (Coxsackievirus B3, UniProt P03313); experiment: FRET-based protease assay, CV-B3 3C protease; format: biochemical; conditions: 1 mM
[24] = test system: Huh-7 cells
[25] = test system: Vero E6 cells
[26] = Vero C1008, read-out: EC50 against CV-B3
[27] = Huh-7, read-out: EC50 against CV-A9
[28] = read-out: inhibition of CV-A9 attachment

CV-A9 3D^pol, sequence (P21404 1740-2201): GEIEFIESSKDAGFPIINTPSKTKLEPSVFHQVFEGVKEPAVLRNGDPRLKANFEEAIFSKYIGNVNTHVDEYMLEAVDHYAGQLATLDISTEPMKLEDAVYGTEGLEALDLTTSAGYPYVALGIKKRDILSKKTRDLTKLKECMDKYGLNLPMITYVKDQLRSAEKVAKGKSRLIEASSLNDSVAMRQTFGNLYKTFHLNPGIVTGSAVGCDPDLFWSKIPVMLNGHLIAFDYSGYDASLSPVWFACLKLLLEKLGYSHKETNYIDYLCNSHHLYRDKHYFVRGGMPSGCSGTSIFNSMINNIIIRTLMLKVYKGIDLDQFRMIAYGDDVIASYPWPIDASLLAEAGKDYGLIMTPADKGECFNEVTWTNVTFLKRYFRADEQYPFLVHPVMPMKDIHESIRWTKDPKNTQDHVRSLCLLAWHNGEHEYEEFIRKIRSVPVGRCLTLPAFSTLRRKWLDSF
CV-B3 3C^pro, sequence (P03313 1541-1723): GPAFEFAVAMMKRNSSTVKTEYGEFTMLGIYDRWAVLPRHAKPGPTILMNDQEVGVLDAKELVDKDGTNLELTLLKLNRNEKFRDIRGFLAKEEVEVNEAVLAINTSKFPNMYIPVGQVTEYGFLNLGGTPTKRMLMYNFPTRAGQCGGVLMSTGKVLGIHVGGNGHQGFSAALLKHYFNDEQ

Row | Compound | EC50 [1, 26] [µM] | EC50 ([2]; read-out: EC50 against Echo-11) [µM] | CC50 [3] [µM] | EC50 [4] [µM] | EC50 [5] [µM] | CC50 [6] [µM] | ZIP score of the combination with velutin [7] | EC50 ([8]; RD) [µM] | phase-specific activity, time-of-addition, CV-A9 [9] | CC50 [10] [µM] | primary screening result by CV-A9-induced CPEs [11] | EC50 [12, 27] [µM] | inhibition at 25 µM [13, 28] [%] | inhibitory activity against 3D^pol [15] | inhibitory activity against IRES elements [17] | intestinal histopathology (H&E) [18] | inhibitory activity against 2A^pro [19] | inhibition at 50 µM [22] [%] | further results
1 | Oc1cccc(O)c1O [pyrogallol] | 1.78 | > 100 | > 100 | > 100 | > 100 | > 100 | 1.684 | 10.5 | exclusively targeted viral attachment | > 100 | identified as CV-A9 inhibitors | 8.83 | 32.4 | – | – | – | – | – | inhibition of CV-A9 internalization ([13]; 25 µM): without affecting cellular internalization
2 | COc1cc(O)c2c(=O)cc(-c3ccc(O)c(OC)c3)oc2c1 [velutin] | 2.26 | 0.69 | > 100 | 0.96 | 2.18 | > 100 | – | 0.76 | pan-stage suppression spanning both entry and post-entry phases | > 100 | identified as CV-A9 inhibitors | 3.7 | 40.5 | no inhibitory activity | no inhibitory activity | no hydropic degeneration of the epithelial cells | no inhibitory activity | 70 to 80 | post-entry viral load kinetics, CV-A9 [14]: significantly suppressed intra- and extracellular viral proliferation; inhibition at 50 µM ([16]; Homo sapiens, read-out: inhibition of CV-A9-induced MCP-1 upregulation): 20%; inhibition at 50 µM ([20]; Homo sapiens, read-out: inhibition of CV-A9-induced COX-2 upregulation): 70 to 80%; inhibition at 50 µM ([21]; Homo sapiens, RD, 24 h, read-out: inhibition of CV-A9-induced TNF-α upregulation): 70 to 80%; inhibition at 25 µM ([13]; read-out: inhibition of CV-A9 internalization): 38.2%
3 | COc1cc(-c2oc3cc(O)cc(O)c3c(=O)c2O)ccc1O [isorhamnetin] | – | – | > 100 | 13.9 | 14.6 | > 100 | 3.126 | – | pan-stage suppression spanning both entry and post-entry phases | > 100 | identified as CV-A9 inhibitors | – | – | no inhibitory activity | no inhibitory activity | – | no inhibitory activity | ~60 | EC50 ([1]; Vero C1008, MOI 0.001, read-out: EC50 against CV-B3): 1.62 µM; inhibition of CV-A9-induced MCP-1 upregulation ([16]; 50 μM): without significant effects; EC50 ([2]; MOI 0.005, read-out: EC50 against Echo-11): 20.6 µM; EC50 ([8]; RD cells, MOI 0.001): 2.23 µM; inhibition of CV-A9-induced COX-2 upregulation ([20]; 50 μM): without significant effects; EC50 ([12]; Huh-7 cells, read-out: EC50 against CV-A9): 9.07 µM; inhibition of CV-A9-induced TNF-α upregulation ([21]; 50 μM, RD cells, MOI 0.001, 24 h): without significant effects; inhibition at 1000 µM [23]: ~50%
4 | O=C(O[C@@H]1Cc2c(O)cc(O)cc2O[C@@H]1c1ccc(O)c(O)c1)c1cc(O)c(O)c(O)c1 [(−)-epicatechin gallate] | – | – | – | – | – | – | 1.443 | – | pan-stage suppression spanning both entry and post-entry phases | – | identified as CV-A9 inhibitors | – | – | no inhibitory activity | no inhibitory activity | – | no inhibitory activity | – | CC50 [24]: > 100 µM; CC50 [25]: > 100 µM; inhibition of CV-B3 3C^pro protease activity [23]: about 50%
5 | Nc1ccc(C(=O)Nc2cccc(-c3nc(N4CCOCC4)c4oc5ncccc5c4n3)c2)cn1 [YM-201636, reference compound] | – | – | – | – | – | – | – | – | – | – | – | – | – | – | – | partial shedding of intestinal epithelial cells | – | – | –
